The data set concerns EG7 cells.

On to `CC[C@H](C)[C@H](NC(=O)[C@@H](NC(=O)[C@@H](N)CO)[C@@H](C)CC)C(=O)N[C@@H](CC(N)=O)C(=O)N[C@@H](Cc1ccccc1)C(=O)N[C@@H](CCC(=O)O)C(=O)N[C@@H](CCCCN)C(=O)N[C@@H](CC(C)C)C(=O)O` [OVA-I peptide], for which the “cytotoxic activity of splenocytes against EG7” value is “only low cytotoxic activity was induced”.

Source of the values: US9045556B2, “Therapeutic agent for cancer” (NEC Corporation, priority 2007, dated 2015).
